The source of these data is patent US12714107B2, “Dioxazolines and their use as herbicides” (BASF SE, priority 2020, dated 2026).

The test system of assay [1] is ECHCG. In words: greenhouse herbicidal activity, post-emergence method. It is filed as in vivo, Echinocloa crus-galli. The settings on record: scale 0 to 100. An excerpt:
(§1) The culture containers used were plastic flowerpots containing loamy sand with approximately 3.0% of humus as the substrate. The seeds of the test plants were sown separately for each species.
(§2) For the pre-emergence treatment, the active ingredients, which had been suspended or emulsified in water, were applied directly after sowing by means of finely distributing nozzles. The containers were irrigated gently to promote germination and growth and subsequently covered with transparent plastic hoods until the test plants had rooted. This cover caused uniform germination of the test plants, unless this had been impaired by the active ingredients. For the post-emergence treatment, the test plants were first grown to a height of 3 to 15 cm, depending on the plant habit, and only then treated with the active ingredients which had been suspended or emulsified in water. For this purpose, the test plants were either sown directly and grown in the same containers, or they were first grown separately as seedlings and transplanted into the test containers a few days prior to treatment.
(§3) Depending on the species, the test plants were kept at 10-25° C. or 20-35° C., respectively. The test period extended over 2 to 4 weeks. During this time, the test plants were tended, and their response to the individual treatments was evaluated.
(§4) Evaluation was carried out using a scale from 0 to 100. […]

In another assay the test system is AVEFA. Described as above. The settings on record: scale 0 to 100. The assay is classed as in vivo, Avena fatua.
Text: as §1, §2, §3, §4

Another assay relates to APESV. In words: greenhouse herbicidal activity, pre-emergence method. The assay is classed as in vivo, Apera spica-venti. The settings on record: application rate 0,500 kg/ha, scale 0 to 100.
Text: as §1, §2, §3, §4

The next assay concerns ALOMY. In words: greenhouse herbicidal activity, post-emergence method. The assay is classed as in vivo, Alopercurus myosuroides. The settings on record: application rate 0,500 kg/ha, scale 0 to 100.
Text: as §1, §2, §3, §4

The test system of assay [2] is AMARE. As to the kind of experiment: greenhouse herbicidal activity, pre-emergence method. The assay is classed as in vivo, Amaranthus retroflexus. The settings on record: scale 0 to 100.
Text: as §1, §2, §3
Evaluation was carried out using a scale from 0 to 100. 100 means no emergence of the test plants, or complete destruction of at least the aerial moieties, and 0 means no damage, or normal course of growth. A good herbicidal activity is given at values of 80 to 90 and a very good herbicidal activity is given at values of 90 to 100.
The test plants used in the greenhouse experiments were of the following species: […]

The next assay deals with SETVI. As to the kind of experiment: greenhouse herbicidal activity, post-emergence method. It is filed as in vivo, Setaria viridis. The note with it: application rate 0,500 kg/ha, scale 0 to 100.
Text: as §1, §2, §3, §4

Another assay concerns SETFA. In words: greenhouse herbicidal activity, pre-emergence method. The assay is classed as in vivo, Setaria faberi. The note with it: application rate 1,000 kg/ha, scale 0 to 100.
Text: as §1, §2, §3, §4

The test system of assay [3] is ECHCG. Described as above. The note with it: scale 0 to 100. The assay is classed as in vivo, Echinocloa crus-galli.
Text: as §1, §2, §3, §4

The test system of assay [4] is AMARE. In words: greenhouse herbicidal activity, post-emergence method. The assay is classed as in vivo, Amaranthus retroflexus. The note with it: application rate 1,000 kg/ha, scale 0 to 100.
Text: as §1, §2, §3, §4

As to `COC(=O)CC(C)NC(=O)C1(C)ON=C(c2cc(Cl)cc(Cl)c2)O1` (centres unmarked) [compound 11], the “herbicidal activity against ECHCG” value in the assay with ECHCG [1] (application rate 0,500 kg/ha) is reported as “very good (a very good herbicidal activity is given at values of 90 to 100)”. For `COC(=O)CCCNC(=O)C1(C)ON=C(c2cc(Cl)cc(Cl)c2)O1` (centres unmarked) [compound 12], the “herbicidal activity against AVEFA” value with AVEFA (application rate 0,500 kg/ha) was “good (A good herbicidal activity is given at values of 80 to 90)”. Moreover, the “herbicidal activity against APESV” value in the assay on APESV is on record as “good (A good herbicidal activity is given at values of 80 to 90)”.

Turning to `COC(=O)C[C@H](C)NC(=O)C1(C(F)(F)F)ON=C(c2cc(Cl)cc(Cl)c2)O1` (stereo partly drawn) [compound 13, methyl (3S)-3-[[3-(3,5-dichlorophenyl)-5-(trifluoromethyl)-1,4,2-dioxazole-5-carbonyl]amino]butanoate], the “herbicidal activity against ALOMY” value in the assay with ALOMY is “good (A good herbicidal activity is given at values of 80 to 90)”. Besides, the “herbicidal activity against AMARE” value with AMARE [2] (application rate 0,500 kg/ha) is recorded as “very good (a very good herbicidal activity is given at values of 90 to 100)”. For `COC(=O)C1CC(NC(=O)C2(C)ON=C(c3cc(F)cc(F)c3)O2)C1` (centres unmarked) [compound 16], the “herbicidal activity against SETVI” value in the assay with SETVI is listed as “very good (a very good herbicidal activity is given at values of 90 to 100)”. As to `CC(CC(=O)O)NC(=O)C1(C)ON=C(c2cc(Cl)cc(Cl)c2)O1` (centres unmarked) [compound 17], the “herbicidal activity against SETFA” value with SETFA is on record as “very good (a very good herbicidal activity is given at values of 90 to 100)”. In the assay with ECHCG [3] (application rate 1,000 kg/ha), the “herbicidal activity against ECHCG” value was “good (A good herbicidal activity is given at values of 80 to 90)”. As for `COC(=O)C1C=CC(NC(=O)C2(C)ON=C(c3cc(F)cc(F)c3)O2)C1` (centres unmarked) [compound 18], the “herbicidal activity against AMARE” value in the assay on AMARE [2] (application rate 1,000 kg/ha) is given as “very good (a very good herbicidal activity is given at values of 90 to 100)”.

Take `COC(=O)C1C=CC(NC(=O)C2(C(F)(F)F)ON=C(c3cc(Cl)cc(Cl)c3)O2)C1` (centres unmarked) [compound 19]: the “herbicidal activity against AVEFA” value in the assay on AVEFA (application rate 0,250 kg/ha) is on record as “very good (a very good herbicidal activity is given at values of 90 to 100)”. `C=CC1(C(=O)NC(C)CC(=O)OC)ON=C(c2cc(Cl)cc(Cl)c2)O1` (centres unmarked) [compound 110]: the “herbicidal activity against AMARE” value in the assay with AMARE [2] (application rate 1,000 kg/ha) and in the assay on AMARE [4] was “good (A good herbicidal activity is given at values of 80 to 90)” in each case. For `C=CC1(C(=O)NC2C=CC(C(=O)OC)C2)ON=C(c2cc(Cl)cc(Cl)c2)O1` (centres unmarked) [compound 111], the “herbicidal activity against ECHCG” value in the assay with ECHCG [3] (application rate 0,250 kg/ha) and in the assay on ECHCG [1] (application rate 0,250 kg/ha) was “very good (a very good herbicidal activity is given at values of 90 to 100)” throughout.
